Data from publication PMC11992225, “Antibacterial compounds against non-growing and intracellular bacteria” (npj Antimicrobials and Resistance, 2025).
In brackets after ≈: the same amount, converted by molar mass. Where two headings read alike, the source gives them in different places.

Assays:
E. coli CFT073 (UPEC) = assay: MIC, standard microdilution assay, growing UPEC; type: cell-based, Escherichia coli; details: for MIC (μM) CA-MHB +PAβN: CA-MHB with 10 μg/ml efflux pump inhibitor PaβN
Summary of the method: (§1)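 Standard microdilution protocol, triplicate wells. For S. flexneri the growth medium is TSB. The other three strains are grown in HEPES-buffered (40 mM, pH 7.4) CA-MHB, and UPEC is also run at pH 5.5 in LPM containing 30 mM MES.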

P. aeruginosa DSM1117 = assay: MIC, standard microdilution assay, growing P. aeruginosa; type: cell-based, Pseudomonas aeruginosa
Summary of the method: as §1

S. aureus DSM2569 = assay: MIC, standard microdilution assay, growing S. aureus; type: cell-based, Staphylococcus aureus
Summary of the method: as §1

S. flexneri 5a M90T = assay: MIC in tryptic soy broth, S. flexneri; type: cell-based, Shigella flexneri; details: for MIC (μM) TSB: S. flexneri, extracellular bacteria in TSB; for MIC: Shigella flexneri, 5AM90T, read-out: MIC (μM) TSB
Summary of the method: as §1

non-growing UPEC CFT073 = assay: Dilution-regrowth assay (screen, hit validation, dose-response) on stationary-phase UPEC; type: cell-based, Escherichia coli; details: for Regrowth: OD600 after dilution into drug-free medium (mean): OD600 at 6h or 8h; for OD600 at 6hr, Mean: after dilution into drug-free medium
Summary of the method: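 Regrowth (OD600 after 6 h, 37 °C) of diluted non-growing CFT073, following 24 h compound treatment of 24 h stationary cultures, defines activity relative to untreated control. Screen at 20 µM, validation at 20, 10, 5 µM (duplicates), dose–response in three biological replicates fitted by five-parameter logistic.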

[1] = E. coli, LPM pH 5.5, read-out: MIC
[2] = E. coli, pH 7.4, CA-MHB, read-out: MIC (μM) CA-MHB
[3] = P. aeruginosa, CA-MHB pH 7.4, read-out: MIC (μM) CA-MHB
[4] = S. aureus, CA-MHB pH 7.4, read-out: MIC (μM) CA-MHB
[5] = E. coli, LPM pH 5.5, regrowth delay of non-growing bacteria, 24 h treatment, OD600 6 h after 2500-fold dilution, read-out: EC50
[6] = Escherichia coli, pH 7.4, read-out: MIC (μM) 1:4 CA-MHB
[7] = Escherichia coli, pH 7.4, read-out: MIC (μM) CA-MHB
[8] = Pseudomonas aeruginosa, DSM1117, pH 7.4, read-out: MIC (μM) CA-MHB
[9] = Staphylococcus aureus, DSM2569, pH 7.4, read-out: MIC (μM) CA-MHB
[10] = E. coli in 1:4 CA-MHB (pH 7.4), 0.25 μM
[11] = E. coli in 1:4 CA-MHB (pH 7.4), 0.5 μM
[12] = E. coli in 1:4 CA-MHB (pH 7.4), 1 μM
[13] = E. coli in 1:4 CA-MHB (pH 7.4), 2.5 μM
[14] = E. coli in 1:4 CA-MHB (pH 7.4), 5 μM
[15] = E. coli in 1:4 CA-MHB (pH 7.4), 10 μM
[16] = E. coli in 1:4 CA-MHB (pH 7.4), 30 μM
[17] = E. coli in LPM (pH 5.5), 0.25 μM
[18] = E. coli in LPM (pH 5.5), 0.5 μM
[19] = E. coli in LPM (pH 5.5), 2.5 μM
[20] = Escherichia coli, pH 5.5, read-out: EC50 (regrowth inhibition curve, Fig. S4)

Compound	MIC (E. coli CFT073 (UPEC); [1]) [µM]	MIC (μM) CA-MHB +PAβN (E. coli CFT073 (UPEC); E. coli, pH 7.4) [µM]	MIC (E. coli CFT073 (UPEC); [2]) [µM]	MIC (P. aeruginosa DSM1117; [3]) [µM]	MIC (S. aureus DSM2569; [4]) [µM]	MIC (μM) TSB (S. flexneri 5a M90T) [µM]	OD600 at 6hr, Mean (non-growing UPEC CFT073; [10])	OD600 at 6hr, Mean (non-growing UPEC CFT073; [11])	OD600 at 6hr, Mean (non-growing UPEC CFT073; [12])	OD600 at 6hr, Mean (non-growing UPEC CFT073; [13])	OD600 at 6hr, Mean (non-growing UPEC CFT073; [14])	OD600 at 6hr, Mean (non-growing UPEC CFT073; [15])	OD600 at 6hr, Mean (non-growing UPEC CFT073; [16])	OD600 at 6hr, Mean (non-growing UPEC CFT073; [17])	OD600 at 6hr, Mean (non-growing UPEC CFT073; [18])	OD600 at 6hr, Mean (non-growing UPEC CFT073; E. coli in LPM (pH 5.5), 1 μM)	OD600 at 6hr, Mean (non-growing UPEC CFT073; [19])	OD600 at 6hr, Mean (non-growing UPEC CFT073; E. coli in LPM (pH 5.5), 5 μM)	OD600 at 6hr, Mean (non-growing UPEC CFT073; E. coli in LPM (pH 5.5), 10 μM)	OD600 at 6hr, Mean (non-growing UPEC CFT073; E. coli in LPM (pH 5.5), 30 μM)	other results
CO[C@H]1/C=C/O[C@@]2(C)Oc3c(C)c(O)c4c(O)c(c(/C=N/N=C/N5CCCCC5)c(O)c4c3C2=O)NC(=O)/C(C)=C\C=C\[C@H](C)[C@H](O)[C@@H](C)[C@@H](O)[C@@H](C)[C@H](OC(C)=O)[C@@H]1C [FCE-22250]	2 (≈ 1.67 µg/mL)	4 (≈ 3.34 µg/mL)	8 (≈ 6.68 µg/mL)	>160	0.0125 (≈ 0.0104 µg/mL)	16 (≈ 13.4 µg/mL)															MIC (E. coli CFT073 (UPEC); E. coli, pH 7.4, 1:4 diluted CA-MHB, read-out: MIC (μM) 1:4 CA-MHB): 10 µM (≈ 8.35 µg/mL); MIC (P. aeruginosa DSM1117; P. aeruginosa, 1:4 diluted CA-MHB pH 7.4, read-out: MIC (μM) 1:4 CA-MHB): 10 µM (≈ 8.35 µg/mL); Regrowth: OD600 after dilution into drug-free medium (mean) (non-growing UPEC CFT073; E. coli in 1:4 CA-MHB (pH 7.4), concentration 0.25): 0.613; Regrowth: OD600 after dilution into drug-free medium (mean) (non-growing UPEC CFT073; E. coli in 1:4 CA-MHB (pH 7.4), concentration 0.5): 0.587; Regrowth: OD600 after dilution into drug-free medium (mean) (non-growing UPEC CFT073; E. coli in 1:4 CA-MHB (pH 7.4), concentration 1): 0.569; Regrowth: OD600 after dilution into drug-free medium (mean) (non-growing UPEC CFT073; E. coli in 1:4 CA-MHB (pH 7.4), concentration 2.5): 0.549; Regrowth: OD600 after dilution into drug-free medium (mean) (non-growing UPEC CFT073; E. coli in 1:4 CA-MHB (pH 7.4), concentration 5): 0.529; Regrowth: OD600 after dilution into drug-free medium (mean) (non-growing UPEC CFT073; E. coli in 1:4 CA-MHB (pH 7.4), concentration 10): 0.515; Regrowth: OD600 after dilution into drug-free medium (mean) (non-growing UPEC CFT073; E. coli in 1:4 CA-MHB (pH 7.4), concentration 30): 0.347; Regrowth: OD600 after dilution into drug-free medium (mean) (non-growing UPEC CFT073; E. coli in LPM (pH 5.5), concentration 0.25): 0.566; Regrowth: OD600 after dilution into drug-free medium (mean) (non-growing UPEC CFT073; E. coli in LPM (pH 5.5), concentration 0.5): 0.535; Regrowth: OD600 after dilution into drug-free medium (mean) (non-growing UPEC CFT073; E. coli in LPM (pH 5.5), concentration 1): 0.500; Regrowth: OD600 after dilution into drug-free medium (mean) (non-growing UPEC CFT073; E. coli in LPM (pH 5.5), concentration 2.5): 0.418; Regrowth: OD600 after dilution into drug-free medium (mean) (non-growing UPEC CFT073; E. coli in LPM (pH 5.5), concentration 5): 0.299; Regrowth: OD600 after dilution into drug-free medium (mean) (non-growing UPEC CFT073; E. coli in LPM (pH 5.5), concentration 10): 0.206; Regrowth: OD600 after dilution into drug-free medium (mean) (non-growing UPEC CFT073; E. coli in LPM (pH 5.5), concentration 30): 0.134; EC50 (non-growing UPEC CFT073; [5]): 3.97 µM; EC50 (non-growing UPEC CFT073; LPM pH 5.5 (red curve), medium assigned by comparison with Dataset 1, read-out: EC50 (regrowth inhibition curve, Fig. S4)): 3.45 µM
Cn1c(COP(=O)(NCCBr)NCCBr)cnc1[N+](=O)[O-] [Evofosfamide]		>160					0.603	0.596	0.573	0.563	0.534	0.521	0.480	0.553	0.543	0.392	0.282	0.193	0.124	0.114	MIC (E. coli CFT073 (UPEC); Escherichia coli, pH 5.5): 160 µM (≈ 71.8 µg/mL); MIC (E. coli CFT073 (UPEC); [6]): > 160 µM; MIC (E. coli CFT073 (UPEC); [7]): > 160 µM; MIC (P. aeruginosa DSM1117; [8]): > 160 µM; MIC (μM) CA-MHB +PAβN (S. aureus DSM2569; S. aureus, CA-MHB with 10 μg/ml PaβN): 80 µM (≈ 35.9 µg/mL); MIC (S. aureus DSM2569; Staphylococcus aureus, DSM2569, pH 7.4, read-out: MIC (μM) 1:4 CA-MHB): 80 µM (≈ 35.9 µg/mL); MIC (S. aureus DSM2569; [9]): 160 µM (≈ 71.8 µg/mL); MIC (S. flexneri 5a M90T): 32 µM (≈ 14.4 µg/mL); EC50 (non-growing UPEC CFT073; Escherichia coli, pH 5.5): 1.54 µM; EC50 (non-growing UPEC CFT073; [20]): 1.54 µM; EC50 (non-growing UPEC CFT073; Escherichia coli, pH 7.4): 11.6 µM; activity against non-growing UPEC in LPM (pH 5.5) compared to 1:4 CA-MHB (pH 7.4) (non-growing UPEC CFT073; regrowth delay and killing, Figs. 2 and 3): potentiated by the low pH
CS[C@H]1SC[C@H]2C(=O)N(C)[C@@H](C(C)C)C(=O)OC[C@@H](NC(=O)c3cnc4ccccc4n3)C(=O)N[C@@H](C)C(=O)N(C)[C@@H]1C(=O)N(C)[C@@H](C(C)C)C(=O)OC[C@@H](NC(=O)c1cnc3ccccc3n1)C(=O)N[C@@H](C)C(=O)N2C [Echinomycin]		40 (≈ 44.1 µg/mL)					0.627	0.601	0.561	0.340	0.110	0.090	0.091	0.602	0.564	0.465	0.288	0.215	0.181	0.160	MIC (E. coli CFT073 (UPEC); Escherichia coli, pH 5.5): 4 µM (≈ 4.41 µg/mL); MIC (E. coli CFT073 (UPEC); [6]): 40 µM (≈ 44.1 µg/mL); MIC (E. coli CFT073 (UPEC); [7]): 20 µM (≈ 22 µg/mL); MIC (P. aeruginosa DSM1117; [8]): > 80 µM; MIC (S. aureus DSM2569; [9]): 2 µM (≈ 2.2 µg/mL); MIC (S. flexneri 5a M90T): 4 µM (≈ 4.41 µg/mL); EC50 (non-growing UPEC CFT073; Escherichia coli, pH 5.5): 1.53 µM; EC50 (non-growing UPEC CFT073; [20]): 1.52 µM; EC50 (non-growing UPEC CFT073; Escherichia coli, pH 7.4): 2.4 µM; EC50 (non-growing UPEC CFT073; Escherichia coli, pH 7.4, read-out: EC50 (regrowth inhibition curve, Fig. S4)): 2.39 µM
Bleomycin	0.5		0.5	>100	12.5	0.25	0.585	0.575	0.327	0.130	0.073	0.067	0.076	0.600	0.583	0.569	0.559	0.513	0.348	0.169	MIC (μM) 1:4 CA-MHB (S. aureus DSM2569; S. aureus, 1:4 diluted CA-MHB pH 7.4): 3.125 µM; EC50 (non-growing UPEC CFT073; [5]): 9.49 µM; EC50 (non-growing UPEC CFT073; E. coli, pH 7.4, regrowth delay of non-growing bacteria, 1:4 CA-MHB, 24 h treatment, OD600 6 h after 2500-fold dilution, read-out: EC50): 0.987 µM
